The term IC50 denotes the midpoint of a concentration-inhibition curve.

We go through eight compounds from publication PMC7188779, “Hydroxypropyl-β-Cyclodextrin Complexes of Styryllactones Enhance the Anti-Tumor Effect in SW1116 Cell Line” (Frontiers in Pharmacology, 2020).

Experiment [1] concerns KB (oral epidermoid carcinoma cell line). Further details: method as in Trieu et al., 2014. The settings on record: ref Trieu et al., 2014; cited from earlier work.
For experiment [2], the system named is MCF7 (breast carcinoma). Further details: method as in Trieu et al., 2014. The following applies: ref Trieu et al., 2014; cited from earlier work.
Experiment [3] deals with HepG2 (liver cancer). Also noted: method as in Trieu et al., 2014. The following applies: ref Trieu et al., 2014; cited from earlier work.
For experiment [4], the system named is human embryonic kidney 293T (HEK293T) cell line. Description: MTT cytotoxicity against normal cell line HEK293T. Type of experiment: cell-based. The settings on record: 24 h; for IC50: Homo sapiens, HEK-293T, means ± SEM (n=3). The method, then:
(§1) The human colon cancer SW1116 cell line, the human hepatocellular carcinoma SMMC-7721 cell line, the human gastric cancer SGC-7901 cell line, and the human hepatocellular carcinoma HepG2 cell line were kindly provided by Xiao-li Xu from the Cancer Center, Fudan University. The human embryonic kidney 293T (HEK293T) cell line was kindly donated by Professor You-hua Xie from Fudan University. These human cancer cell lines were cultured in DMEM medium or RPMI-1640 medium, whereas the HEK293T cell line was cultured in MEM medium. All of the cell lines were supplemented with 10% FBS, penicillin (100 U/ml), and streptomycin ([…]) under a humidified atmosphere of 5% CO2 at 37°C using a CO2 incubator (SANYO, Osaka, Japan). Cell count was assessed using the trypan blue dye exclusion method.
(§2) The antiproliferative effects of the treatments were evaluated using the MTT assay. Cells were seeded at a density of 5×10^3 cells/well in 96-well plates (Corning, NY, USA). After attachment, the culture media were replaced with various concentrations of chemicals for 24 h. Then, the media in 96-well plates were incubated with MTT reagent (5 mg/ml) for 4 h at 37°C. Subsequently, the culture medium was discarded and 100 μl of DMSO was added to each well, to solubilize the formazan crystal formed. The absorbance of formazan crystal solution was determined at 570 nm on a Multiskan FC from Thermo Fisher Scientific Inc. (Waltham, MA, USA).

The subject of experiment [5] is human gastric cancer SGC-7901 cell line. As to the kind of experiment: MTT antiproliferative assay, SGC-7901. Type of experiment: cell-based. The following applies: 24 h, 1.0-100.0 μM, means ± SEM (n=3). The method, then:
as §1, §2
A general note: Tetrazolium dyes change colour on reduction, which living cells bring about.

In experiment [6] the test system is human hepatocellular carcinoma SMMC-7721 cell line. As to the kind of experiment: MTT antiproliferative assay, SMMC-7721. Type of experiment: cell-based. The following applies: for IC50: Homo sapiens, SMMC-7721, means ± SEM (n=3). How it is done: as §1, §2
The test system of experiment [7] is human colon cancer SW1116 cell line. As to the kind of experiment: MTT antiproliferative assay, SW1116. It counts as cell-based. The settings on record: for IC50: Homo sapiens, SW 1116, means ± SEM (n=3); for cell viability of SW1116 cells compared with normal group (0 μM): 30 μM, p < 0.01. The method, then: as §1, §2
Experiment [8] concerns human hepatocellular carcinoma HepG2 cell line. As to the kind of experiment: MTT antiproliferative assay, HepG2. Type of experiment: cell-based. The settings on record: 24 h, 1.0-100.0 μM, means ± SEM (n=3). The method, then:
as §1, §2

Experiment [9] relates to SW1116 cells. Description: Annexin V-FITC/PI double staining by flow cytometry. It counts as cell-based, human. The following applies: 36 h. The method, then: The growing cells were incubated in 24-well microplates (Corning, NY, USA) for 24 h. The cells were then treated with various concentrations of leiocarpin E-7′-monoacetate or taxol in humidified air with 5% CO2 at 37°C. After 36 h of incubation, the culture medium was discarded, and the cells were collected. For the apoptosis analysis, cells were suspended with 1×binding buffer (1×10^6 cells/ml) and then labeled with annexin V-FITC/PI, as per the manufacturer's instructions (Keygentec, Nanjing, Jiangsu, China). The analysis of the samples was performed by flow cytometry (Becton-Dickinson Bioscience, San Jose, CA, USA), and the acquired data was analyzed by the CellQuest software (Becton-Dickinson Bioscience, San Jose, CA, USA).
Background: A flow cytometer gives signals particle by particle.

Experiment [10] concerns caspase-3, -8 and -9 in SW1116 cells. As to the kind of experiment: Caspase activity assay in cell lysates. It counts as cell-based, human. The following applies: 8 h. How it is done: To evaluate the activity of caspases, cell lysates were prepared after their respective designated treatments. The incubation of the growing cells was carried out in 24-well microplates (Corning, NY, USA) for 24 h. The cells were then treated with different concentrations of leiocarpin E-7′-monoacetate under humidified air with 5% CO2 at 37°C. After 8 h of incubation, the culture medium was discarded, the cells collected and washed twice with PBS. The mixture was then centrifuged at 2,000 rpm for 5 min. The PBS supernatant was discarded and the cells (concentration, 5×10^6 cells) were collected. To these cells, ice-cold lysis buffer (150~200 μl) was added. The mixture was placed on ice for 30 min, and then centrifuged (10,000 rpm, 1 min) at 4°C. The supernatant, containing lysed protein, was carefully aspirated and transferred to a new tube. The protein concentration was then measured in 2 μl of the supernatant using the Bradford method. The caspase assays were then performed in 96-well microtiter plates (Keygentec, Nanjing, Jiangsu, China) by incubating 10 μl of protein cell lysate per sample in 80 μl of reaction buffer (1% NP-40, 20 mM Tris-HCl (pH 7.5), 137 mM NaCl, and 10% glycerol) containing 10 μl of caspase substrate (2 mM). Lysates were incubated at 37°C for 4 h. Measuremet was done at 405 nm on a Multiskan FC from Thermo Fisher Scientific Inc. (Waltham, MA, USA). The detailed analysis procedure is described in the manufacturer's protocol (Keygentec, Nanjing, Jiangsu, China).

Where [11] appears, read: 1.0-100.0 μM, read-out: IC50 HEK293T.
The mark [12] stands for this setting: MTT, 24 h, 1.0-100.0 μM, read-out: IC50 SMMC-7721.
[13] abbreviates: MTT, 24 h, 1.0-100.0 μM, read-out: IC50 SW1116.

“Also recorded” adds a separate entry of the source. Where two headings read alike, the source gives them in different places.

In the case of `CC(=O)OC1C(c2ccccc2)OC2C=CC(=O)OC21` (centres unmarked) [7-acetylaltholactone], the results for the IC50 in [1], in experiment [2] and in [3] were 13.1 µM, 60.2 µM and 23.7 µM, respectively.
Take `CC(=O)O[C@H]1C=CC(=O)O[C@H]1[C@H]1O[C@@H]1c1ccccc1` [Cheliensisin A, (2R,3S)-6-oxo-2-((2S,3R)-3-phenyloxiran-2-yl)-3,6-dihydro-2H-pyran-3-yl acetate]: the IC50 in [4] (setting [11]) is more than 100 µM; in experiment [4] (pristine compound, 25.0-200.0 μM, read-out: IC50 HEK293T Compound), more than 200 µM; in experiment [5] it was more than 100 µM; in experiment [6] (setting [12]), more than 100 µM; in experiment [6] (pristine compound, MTT, 24 h, 25.0-200.0 μM, read-out: IC50 SMMC-7721 Compound) it was 111 ± 2.41 µM; in experiment [7] (setting [13]) it was 93.18 ± 0.78 µM. The IC50 in [7] (pristine compound, MTT, 24 h, 25.0-200.0 μM, read-out: IC50 SW1116 Compound) was 93.18 ± 0.78 µM; in experiment [8], more than 100 µM. Further, the “IC50 reduced by complexation with HP-β-CD, SMMC-7721” value in experiment [6] (complex vs pristine compound) turned out to be 58%. Further, in experiment [7] (complex vs pristine compound), the “IC50 reduced by complexation with HP-β-CD, SW1116” value came out at 45%.
In the case of `O=C1C=CC[C@H]([C@H](O)[C@H](O)c2ccccc2)O1` [Goniodiol, (R)-6-((1R,2R)-1,2-dihydroxy-2-phenylethyl)-5,6-dihydro-2H-pyran-2-one], the 50% inhibitory concentration (IC50) in [4] (setting [11]) was more than 100 µM; in [5], more than 100 µM; in experiment [6] (setting [12]), more than 100 µM; in experiment [7] (setting [13]), 80 ± 4.16 µM; in [8], more than 100 µM.
With `O=C1C=CC[C@H]([C@@H](O)[C@H](Oc2cc(O)c3c(c2)O[C@H](c2ccccc2)CC3=O)c2ccccc2)O1` [Leiocarpin B, (S)-5-hydroxy-7-((1R,2R)-2-hydroxy-2-((R)-6-oxo-3,6-dihydro-2H-pyran-2-yl)-1-phenylethoxy)-2-phenylchroman-4-one], the IC50 in [4] (setting [11]) is more than 100 µM; in [5] it was 18.2 ± 0.88 µM; in experiment [6] (setting [12]), 15.5 ± 1.11 µM; in [7] (setting [13]), 17.5 ± 0.69 µM; in [8] it was 19.3 ± 1.42 µM. Also, in [7] (24 h), the “cell viability of SW1116 cells compared with normal group (0 μM)” value was “significantly less”.
For the compound `O=C1C=CC[C@H]([C@@H](O)[C@H]2O[C@H]([C@H]3CC=CC(=O)O3)[C@@H](c3ccccc3)c3ccccc32)O1` [Leiocarpin E, (R)-6-((R)-hydroxy((1S,3S,4S)-3-((R)-6-oxo-3,6-dihydro-2H-pyran-2-yl)-4-phenylisochroman-1-yl)methyl)-5,6-dihydro-2H-pyran-2-one], the concentration for half-maximal inhibition (IC50) was more than 100 µM in [4] (setting [11]); more than 100 µM in experiment [5]; more than 100 µM in experiment [6] (setting [12]); 15.1 ± 1.87 µM in [7] (setting [13]); more than 100 µM in experiment [8]. The “cell viability of SW1116 cells compared with normal group (0 μM)” value in [7] (24 h) is listed as “significantly less”.
Turning to `CC(=O)OC(C1CC=CC(=O)O1)C1OC(C2CC=CC(=O)O2)C(c2ccccc2)c2ccccc21` (centres unmarked) [Leiocarpin E-7′-monoacetate, leiocarpin E-7′-monoacetate], the IC50 in experiment [4] (setting [11]) was more than 100 µM; in [5], 45 ± 4.27 µM; in experiment [6] (setting [12]), 61.7 ± 10.1 µM; in experiment [7] (setting [13]) it was 6.73 ± 0.89 µM; in experiment [8], 50.1 ± 3.25 µM. The “early apoptosis rate (Q4)” value was 2.6% in experiment [9] (SW1116, 3 μM); 21.8% in [9] (SW1116, 10 μM); 55.2% in experiment [9] (SW1116, 30 μM). Besides, the “cell viability of SW1116 cells compared with normal group (0 μM)” value in experiment [7] (24 h) was “significantly less”. Moreover, the “ratio of ODsample to ODnegative (caspase activity)” value is given as not above 1 in experiment [10] (SW1116, 3 μM); “greater than 1” in experiment [10] (SW1116, 10 μM); “greater than 1” in [10] (SW1116, 30 μM).
On to `COc1cc([C@@H]2c3cc4c(cc3[C@@H](O[C@@H]3O[C@@H]5CO[C@@H](C)O[C@H]5[C@H](O)[C@H]3O)[C@H]3COC(=O)[C@H]23)OCO4)cc(OC)c1O` [VP-16, Etoposide, reference compound], for which the IC50 is more than 100 µM in experiment [4] (setting [11]); more than 100 µM in experiment [5]; more than 100 µM in [6] (setting [12]); 41.9 ± 0.98 µM in [7] (setting [13]); more than 100 µM in experiment [8].
hydroxypropyl-β-cyclodextrin [HP-β-CD]: the “inhibitory activity against HEK293T” value in experiment [4] (25.0-200.0 μM) is “did not show any inhibitory activity”. Moreover, the “inhibition of growth, SMMC-7721” value in [6] (MTT, 24 h, 25.0-200.0 μM) is given as “did not show any inhibition; also recorded: no inhibitory effect”. Moreover, in experiment [7] (MTT, 24 h, 25.0-200.0 μM), the “inhibition of growth, SW1116” value is recorded as “did not show any inhibition; also recorded: no inhibitory effect”.
